Laboratory results reported in ChEMBL document CHEMBL5107997, “Discovery and biological evaluation of 1-{2,7-diazaspiro[3.5]nonan-2-yl}prop-2-en-1-one derivatives as covalent inhibitors of KRAS G12C with favorable metabolic stability and anti-tumor activity” (Bioorg Med Chem, 2022).

Key:
GTPase KRas = GTPase KRas (Homo sapiens, UniProt P01116, G12C); experiment: Inhibition of biotinylated Avi-tagged GDP-bound KRAS G12C mutant (1 to 185 residues) (unknown origin) assessed as inhibition of KRAS G12C mutant/SOS/GST-tagged c-Raf complex formation incubated for 1 hr and measured by fluorescence based assay
[1] = Downregulation of pERK levels in human NCI-H1373 cells measured after 2 hrs by EISA; type: functional, cell-based; settings: NCI-H1373, 2 h
NCI-H1373 [2] = experiment: Growth inhibition of human NCI-H1373 cells assessed as cell viability after 6 days by CellTiter-Glo assay; type: functional, cell-based; settings: NCI-H1373, 144 h
A-375 = experiment: Growth inhibition of human A-375 cells assessed as cell viability after 6 days by CellTiter-Glo assay; type: functional, cell-based; settings: A-375, 144 h
[3] = Aqueous solubility of the compound in pH 6.8 JP2 fluid measured after 20 hrs by disintegration test; type: physicochemical
[4] = Intrinsic clearance in human liver microsomes at 0.1 to 0.2 umol/L measured after 30 mins in presence of NADPH by LC-MS/MS analysis; type: ADME, Microsome; settings: dose 0.1-0.2 µmol/L, read-out: CLH
[5] = Intrinsic clearance in mouse liver microsomes at 0.1 to 0.2 umol/L measured after 30 mins in presence of NADPH by LC-MS/MS analysis; type: ADME, Microsome; settings: dose 0.1-0.2 µmol/L, read-out: CLH
[6] = tested on: GTPase KRas (Homo sapiens), P01116 [G12C]; experiment: Inhibition of biotinylated Avi-tagged GDP-bound KRAS G12C mutant (1 to 185 residues) (unknown origin) assessed as inhibition of KRAS G12C mutant/SOS/GST-tagged c-Raf complex formation at 3 uM incubated for 1 hr and measured by fluorescence based assay relative to control
[7] = Downregulation of pERK levels in human A-375 cells measured after 2 hrs by EISA; type: functional, cell-based; settings: A-375, 2 h
[8] = Plasma concentration in nude mouse xenografted with human NCI-H1373 cells at 100 mg/kg, po administered as single dose and measured at 1 hr by LC/MS-MS analysis; type: ADME, organism-based
[9] = Plasma concentration in nude mouse xenografted with human NCI-H1373 cells at 100 mg/kg, po administered as single dose and measured at 6 hr by LC/MS-MS analysis; type: ADME, organism-based
[10] = Drug uptake in tumor of nude mouse xenografted with human NCI-H1373 cells at 100 mg/kg, po administered as single dose and measured at 6 hr by LC/MS-MS analysis; type: ADME, organism-based, Neoplasm; settings: read-out: Drug uptake
[11] = Plasma concentration in nude mouse xenografted with human NCI-H1373 cells at 30 mg/kg, sc administered as single dose and measured at 1 hr by LC/MS-MS analysis; type: ADME, organism-based
[12] = Plasma concentration in nude mouse xenografted with human NCI-H1373 cells at 30 mg/kg, sc administered as single dose and measured at 6 hr by LC/MS-MS analysis; type: ADME, organism-based
[13] = Drug uptake in tumor of nude mouse xenografted with human NCI-H1373 cells at 30 mg/kg, sc administered as single dose and measured at 6 hr by LC/MS-MS analysis; type: ADME, organism-based, Neoplasm; settings: read-out: Drug uptake
NCI-H1373 [14] = experiment: Antitumor activity against human NCI-H1373 cells xenografted in nude mouse assessed as inhibition of p-ERK levels at 33 mg/kg, sc administered as single dose and measured after 6 hrs; type: functional
NCI-H1373 [15] = experiment: Antitumor activity against human NCI-H1373 cells xenografted in nude mouse assessed as tumor growth inhibition at 3 mg/kg, sc administered as single dose; type: functional; settings: read-out: TGI
NCI-H1373 [16] = experiment: Antitumor activity against human NCI-H1373 cells xenografted in nude mouse assessed as tumor growth inhibition at 10 mg/kg, sc administered as single dose; type: functional; settings: read-out: TGI
NCI-H1373 [17] = experiment: Antitumor activity against human NCI-H1373 cells xenografted in nude mouse assessed as tumor growth inhibition at 30 mg/kg, sc administered as single dose; type: functional; settings: read-out: TGI
[18] = Toxicity in nude mouse xenografted with human NCI-H1373 cells assessed as effect on body weight at 3 to 30 mg/kg, sc; type: organism-based; settings: in vivo, dose 3-30 mg/kg

C=CC(=O)N1CC2(CCN(c3nc(OCCCN(C)C)nc4c(F)c(-c5c(C)ccc6[nH]ncc56)c(Cl)cc34)CC2)C1
IC50 (GTPase KRas): 260 nM

C=CC(=O)N1CC2(CCN(c3nc(OC4CCOCC4)nc4c(F)c(-c5c(C)ccc6[nH]ncc56)c(Cl)cc34)CC2)C1
IC50 (GTPase KRas): 2100 nM

C=CC(=O)N1CC2(CCN(c3nc(OCCN(C)C)nc4c(F)c(-c5c(C)ccc6[nH]ncc56)c(Cl)cc34)CC2)C1
IC50 (GTPase KRas): 340 nM

C=CC(=O)N1CCC2(CC1)CN(c1nc(NC3CCN(C)CC3)nc3c(F)c(-c4c(C)ccc5[nH]ncc45)c(Cl)cc13)C2
IC50 (GTPase KRas): > 30000 nM

C=CC(=O)N1CC2(CCN(c3nc(N(C)C4CCN(CC)CC4)nc4c(F)c(-c5c(C)ccc6[nH]ncc56)c(Cl)cc34)CC2)C1
IC50 (GTPase KRas): 3200 nM

C=CC(=O)N1CC2(CCN(c3nc(SC4CCN(CC)CC4)nc4c(F)c(-c5c(C)ccc6[nH]ncc56)c(Cl)cc34)CC2)C1
IC50 (GTPase KRas): 940 nM

C=CC(=O)N1CCC2(C1)CN(c1nc(NC3CCN(C)CC3)nc3c(F)c(-c4c(C)ccc5[nH]ncc45)c(Cl)cc13)C2
IC50 (GTPase KRas): 18000 nM

C=CC(=O)N1CC2(CCN(c3nc(OC4CCN(C)CC4)nc4c(F)c(-c5c(C)ccc6[nH]ncc56)c(Cl)cc34)CC2)C1
IC50 (GTPase KRas): 70 nM | IC50 [1]: 96 nM | IC50 (NCI-H1373 [2]): 100 nM | IC50 (A-375): 2900 nM | solubility at 20 h [3]: > 100 µM | CLint scaled [4]: 35 mL/min/kg | CLint scaled [5]: 115 mL/min/kg

C=CC(=O)N1CC2(C1)CN(c1nc(NC3CCN(C)CC3)nc3c(F)c(-c4c(C)ccc5[nH]ncc45)c(Cl)cc13)C2
IC50 (GTPase KRas): 3000 nM | inhibition [6]: 60%

C=CC(=O)N1CC2(CCN(c3nc(NC4CCN(C)CC4)nc4c(F)c(-c5c(C)ccc6[nH]ncc56)c(Cl)cc34)C2)C1
IC50 (GTPase KRas): 160 nM | IC50 [1]: 550 nM | IC50 [7]: > 10000 nM | IC50 (NCI-H1373 [2]): 950 nM | IC50 (A-375): 4000 nM

C=CC(=O)N1CC2(CCN(c3nc(OCCCN4CCCCC4)nc4c(F)c(-c5c(C)ccc6[nH]ncc56)c(Cl)cc34)CC2)C1
IC50 (GTPase KRas): 370 nM

C=CC(=O)N1CC2(CCN(c3nc(OC4CCN(CC)CC4)nc4c(F)c(-c5c(C)ccc6[nH]ncc56)c(Cl)cc34)CC2)C1
IC50 (GTPase KRas): 77 nM | IC50 [1]: 140 nM | IC50 (NCI-H1373 [2]): 120 nM | IC50 (A-375): 3500 nM | solubility at 20 h [3]: > 100 µM | CLint scaled [4]: 37 mL/min/kg | CLint scaled [5]: 115 mL/min/kg | concentration at 1 h [8]: 670 nM | concentration at 6 h [9]: 130 nM | concentration at 6 h [10]: 70 nM | concentration at 1 h [11]: 3800 nM | concentration at 6 h [12]: 720 nM | concentration at 6 h [13]: 740 nM | inhibition in vivo at 33 mg/kg (NCI-H1373 [14]): 63% | inhibition in vivo at 3 mg/kg (NCI-H1373 [15]): 33% | inhibition in vivo at 10 mg/kg (NCI-H1373 [16]): 50% | inhibition in vivo at 30 mg/kg (NCI-H1373 [17]): 92% | Activity [18]: Non-Toxic

C=CC(=O)N1CC2(CCN(c3nc(OCCCN4CCOCC4)nc4c(F)c(-c5c(C)ccc6[nH]ncc56)c(Cl)cc34)CC2)C1
IC50 (GTPase KRas): 650 nM

C=CC(=O)N1CC2(CCN(c3nc(NC4CCN(C)CC4)nc4c(F)c(-c5c(C)ccc6[nH]ncc56)c(Cl)cc34)CC2)C1
IC50 (GTPase KRas): 350 nM | IC50 [1]: 380 nM | IC50 [7]: > 10000 nM | IC50 (NCI-H1373 [2]): 390 nM | IC50 (A-375): 2800 nM

CCN1CCC(Oc2nc(N3CCC4(CC3)CN(C(=O)/C=C/CN3CCOCC3)C4)c3cc(Cl)c(-c4c(C)ccc5[nH]ncc45)c(F)c3n2)CC1
IC50 (GTPase KRas): > 10000 nM

C=CC(=O)N1CCN(c2nc(NC3CCN(C)CC3)nc3c(F)c(-c4c(C)ccc5[nH]ncc45)c(Cl)cc23)CC1
IC50 (GTPase KRas): 470 nM | IC50 [1]: 430 nM | IC50 [7]: > 10000 nM | IC50 (NCI-H1373 [2]): 650 nM | IC50 (A-375): 1100 nM

C=CC(=O)N1CC2(CCN(c3nc(OC4(CN(C)C)CCC4)nc4c(F)c(-c5c(C)ccc6[nH]ncc56)c(Cl)cc34)CC2)C1
IC50 (GTPase KRas): 770 nM

C=CC(=O)N1CC2(CCN(c3nc(OCC4CCN(C)CC4)nc4c(F)c(-c5c(C)ccc6[nH]ncc56)c(Cl)cc34)CC2)C1
IC50 (GTPase KRas): 130 nM
